Reference: US11396516B2, “Tricyclic compounds as Cyp1 inhibitors” (The General Hospital Corporation, priority 2017, dated 2022)
“Also recorded” adds a separate entry of the source. Marks after values point to notes of the source that are not given here.

Key:
[1] = system: DOX-induced cardiac apoptosis in C57/B16 mice; assay: Mouse annexin model of acute DOX-induced cardiotoxicity (Anx-750 imaging); assay type: in vivo
Protocol: DOX fluorescence imaging was carried out on IVIS spectrum with the filter setting 500 nm excitation/600 nm emission, 30 second exposure, with 135 μm in-plane resolution. A series of DOX phantoms, ranging from 0 to 0.03 mM was prepared in saline, and imaged on the IVIS spectrum with identical settings. Anx-750 fluorescence was detected with the filter setting 745 nm excitation/800 nm emission, 30 second exposure, and 135 μm resolution.
Annexin and DOX fluorescence signal was quantified and analyzed in ImageJ (National Institute of Health). For each heart, fluorescence intensity was averaged across 4-6 slices. Annexin uptake was normalized to the saline injected control animals. DOX fluorescence in the heart was quantified by calculating the signal-to-noise ratio (SNR=mean fluorescence intensityheart/standard deviationair). A threshold of two standard deviations above the saline injected control animals was applied to all DOX injected animals, with or without therapeutics. Only animals that met the threshold (thus DOX positive hearts) were included in the analysis. All statistical analysis was performed in Prism (Graphpad).
Doxorubicin was dissolved in 0.9% normal saline and administered at a dose of 15 mg/kg to adult C57/B16 mice via i.p. injection. For the treatment arm, compound of example 2 was dissolved in 10% DMSO and 90% olive oil (carrier) or carrier alone was administered via intraperitoneal injection on the contralateral side.
Twenty-two hours after DOX and treatment injections, Anx-750 (Annexin Vivo 750, Perkin Elmer) was injected intravenously according to manufacturer's instructions. After 2 hours of probe circulation, hearts were excised, sectioned into 1-mm slices along the short axis, and imaged on a commercial imaging system (IVIS spectrum, Perkin Elmer) to assess apoptosis as previously described (Chen et al., 2011).
DOX uptake in the heart was assessed by reflectance fluorescence imaging, and the resultant apoptosis was simultaneously imaged with Anx-750, a near-infrared fluorescent Annexin V probe (Annexin-Vivo 750 is an Annexin V conjugate with a near-infrared fluorochrome, see Chen et al., 2011). […] Referring to FIGS. 1A-1D, * p<0.05, ** p<0.01, and *** p<0.001, ANOVA. Carrier=10% DMSO+90% olive oil.

[2] = system: zebrafish embryos treated with DOX (cardiomyopathy phenotype); assay: Zebrafish doxorubicin cardiomyopathy model (rescue from phenotype); assay type: in vivo; conditions: Danio rerio; rescue from DOX (100 μM) cardiomyopathy phenotype, 40 hours post-treatment; read-out: EC50 is zebrafish
Protocol: Zebrafish embryos at 30 hours post-fertilization were treated with DOX at 100 μM in 96-well plates as previously described (Liu et al., 2014). Tested compounds were dissolved in DMSO and added at concentrations ranging from 3 nM to 10 μM (n=6 fish per dose; <1% DMSO v/v). The cardiomyopathy phenotype (decreased cardiac contraction, pericardial edema, and decreased tail blood flow) was assessed under light microscopy (5× magnification) at 40 hours post-treatment (hpt). Percent rescue from the cardiomyopathy phenotype was calculated for each concentration tested. Zebrafish were considered to be rescued from DOX-induced cardiomyopathy if all three features of the phenotype were absent. For the tested compounds, each dose-response experiment was repeated three times.
Dose-response curves were constructed using Prism (GraphPad).
Zebrafish were treated with DOX and assessed for the development of the cardiomyopathy phenotype (decreased cardiac contraction, pericardial edema, and decreased tail blood flow). Zebrafish were considered to be rescued if all three features of the cardiomyopathy phenotype were absent upon co-treatment with a tested compound. Referring to FIGS. 3-9, data are depicted as mean+/−standard error (n=6 fish per dose; each experiment performed in triplicate).

CYP1 enzymes = assay: Zebrafish CYP1 enzyme levels after DOX treatment; conditions: for levels of CYP1 enzymes after doxorubicin treatment: doxorubicin alone
CYP1A [3] = assay: Zebrafish CYP1A Western blot; assay type: in vivo; conditions: co-treatment with DOX, 10 μM
Protocol: Assessing RNA and protein levels was performed using quantitative PCR (FIG. 2A) and Western blot with a zebrafish-specific antibody against CYP1A (FIG. 2B). […] This effect was seen as early as 18 hours post-treatment, prior to the development of the cardiomyopathy phenotype at 42 hours post-treatment.

HL-1 cardiomyocytes = assay: Cultured HL-1 cardiomyocyte model (DOX-induced apoptosis, viability); assay type: cell-based, mouse; conditions: doxorubicin 5 μM
Protocol: The cardiomyocyte cell line HL-1 derived from mouse atrial tumor was a gift from W. Claycomb. Cells were cultured as previously published (Claycomb et al., 1998) and treated with doxorubicin 5 μM with or without the tested compounds at a concentration up to 50 μM. Viability was assessed after 18 hours of using a CellTiter-Glo Luminescent assay from Promega. Each dose-response experiment was repeated three times.
Compounds were tested in HL-1 cultured cardiomyocytes to assess for efficacy in preventing DOX-induced apoptosis. Cell viability was assessed as described in the materials and methods section.

CYP2B6 = CYP2B6 (Homo sapiens (Human), UniProt P20813); assay: CYP inhibition assay, human liver microsomes; assay type: biochemical; conditions: buproprion 100 μM
Sequence of CYP2B6 (P20813 whole entry): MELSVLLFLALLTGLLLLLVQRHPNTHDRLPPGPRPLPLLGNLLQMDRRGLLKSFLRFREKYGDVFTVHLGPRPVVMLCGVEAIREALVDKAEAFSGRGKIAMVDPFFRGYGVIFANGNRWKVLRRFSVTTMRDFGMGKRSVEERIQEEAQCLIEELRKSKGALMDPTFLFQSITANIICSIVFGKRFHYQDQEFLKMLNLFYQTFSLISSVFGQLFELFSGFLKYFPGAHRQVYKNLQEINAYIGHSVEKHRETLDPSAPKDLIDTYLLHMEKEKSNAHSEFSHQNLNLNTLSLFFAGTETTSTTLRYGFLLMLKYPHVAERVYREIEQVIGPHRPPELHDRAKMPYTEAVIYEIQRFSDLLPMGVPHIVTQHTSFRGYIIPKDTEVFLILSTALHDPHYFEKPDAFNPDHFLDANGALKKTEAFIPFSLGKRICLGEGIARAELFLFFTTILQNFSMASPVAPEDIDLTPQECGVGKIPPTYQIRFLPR
Protocol: (§1) CYP inhibition experiments were performed by Cerep Panlabs (Eurofins) using human liver microsomes and the following substrates: phenacetin 10 μM (CYP1A), buproprion 100 μM (CYP2B6), paclitaxel 10 μM (CYP2C8), diclofenac 10 μM (CYP 2C9), omeprazole 0.5 μM (CYP2C19), dextromethorphan 5 μM (CYP2D6), and testosterone 50 μM (CYP3A). Metabolites of each substrate were measured using LC-MS/MS. Mean percent inhibition was calculated using the following reference inhibitors: furafylline (CYP1A), clopidogrel (CYP2B6), montelukast (CYP2C8), sulfaphenazole (CYP2C9), oxybutynin (CYP2C19), quinidine (CYP2D6), and ketoconazole (CYP3A). […] All concentrations were tested in duplicate to obtain the final results.
(§2) The ability of the tested compounds to inhibit a panel of CYP enzymes in vitro was assessed using a series of human liver microsome assays.

CYP2C9 = CYP2C9 (Homo sapiens (Human), UniProt P11712); assay: CYP inhibition assay, human liver microsomes; assay type: biochemical; conditions: diclofenac 10 μM, reference sulfaphenazole
Sequence of CYP2C9 (P11712 whole entry): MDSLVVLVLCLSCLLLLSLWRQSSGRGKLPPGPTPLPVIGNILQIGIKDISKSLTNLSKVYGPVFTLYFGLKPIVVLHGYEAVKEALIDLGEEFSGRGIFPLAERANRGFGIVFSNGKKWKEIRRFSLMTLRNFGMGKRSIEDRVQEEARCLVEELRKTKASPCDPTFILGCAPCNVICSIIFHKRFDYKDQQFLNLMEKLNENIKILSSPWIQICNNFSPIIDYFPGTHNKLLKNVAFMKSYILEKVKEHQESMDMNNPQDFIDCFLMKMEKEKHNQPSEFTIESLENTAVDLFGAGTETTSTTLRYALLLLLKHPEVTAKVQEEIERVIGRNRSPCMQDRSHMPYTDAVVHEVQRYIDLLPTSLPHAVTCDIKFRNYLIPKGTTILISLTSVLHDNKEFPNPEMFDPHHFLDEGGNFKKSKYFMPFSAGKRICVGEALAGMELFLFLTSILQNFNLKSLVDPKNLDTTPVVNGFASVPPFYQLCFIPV
Protocol: as §1, §2

CYP1A [4] = molecular target: CYP1A (Homo sapiens (Human), UniProt P05177); assay: CYP inhibition assay, human liver microsomes; assay type: biochemical; conditions: human liver microsomes, phenacetin 10 μM; read-out: IC50 (M) CYP1A
Sequence of CYP1A (Homo sapiens (Human), UniProt P05177) (P05177 whole entry): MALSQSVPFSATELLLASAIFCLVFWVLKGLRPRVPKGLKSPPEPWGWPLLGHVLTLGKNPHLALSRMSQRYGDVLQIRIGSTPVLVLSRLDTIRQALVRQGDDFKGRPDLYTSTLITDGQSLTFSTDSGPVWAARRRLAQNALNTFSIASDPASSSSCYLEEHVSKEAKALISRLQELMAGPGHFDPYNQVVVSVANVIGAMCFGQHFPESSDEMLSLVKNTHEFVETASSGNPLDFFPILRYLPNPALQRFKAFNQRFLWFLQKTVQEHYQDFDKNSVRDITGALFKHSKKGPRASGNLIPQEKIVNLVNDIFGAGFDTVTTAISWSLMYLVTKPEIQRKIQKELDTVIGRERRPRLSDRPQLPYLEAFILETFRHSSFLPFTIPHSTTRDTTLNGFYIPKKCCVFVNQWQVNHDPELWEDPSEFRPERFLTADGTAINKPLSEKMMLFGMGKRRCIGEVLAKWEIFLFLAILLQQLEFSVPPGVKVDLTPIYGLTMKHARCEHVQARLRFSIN
Protocol: as §1, §2

CYP3A = CYP3A (Homo sapiens, UniProt P08684); assay: CYP inhibition assay, human liver microsomes; assay type: biochemical
Sequence of CYP3A (P08684 2-503 limits assumed): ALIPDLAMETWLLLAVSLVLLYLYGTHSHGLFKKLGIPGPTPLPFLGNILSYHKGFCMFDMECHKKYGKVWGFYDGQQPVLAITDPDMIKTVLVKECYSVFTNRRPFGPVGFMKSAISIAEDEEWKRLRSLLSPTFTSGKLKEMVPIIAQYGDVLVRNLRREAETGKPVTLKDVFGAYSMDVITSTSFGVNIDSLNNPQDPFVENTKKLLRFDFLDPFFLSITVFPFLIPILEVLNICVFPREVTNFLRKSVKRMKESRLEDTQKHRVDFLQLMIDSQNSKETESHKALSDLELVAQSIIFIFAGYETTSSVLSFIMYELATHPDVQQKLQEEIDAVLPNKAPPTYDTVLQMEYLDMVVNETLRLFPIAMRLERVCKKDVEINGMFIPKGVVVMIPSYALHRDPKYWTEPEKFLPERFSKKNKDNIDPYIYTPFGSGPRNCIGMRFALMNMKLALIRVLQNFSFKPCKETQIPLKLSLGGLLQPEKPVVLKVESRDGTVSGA
Protocol: as §1, §2

CYP2C19 = CYP2C19 (Homo sapiens (Human), UniProt P33261); assay: CYP inhibition assay, human liver microsomes; assay type: biochemical; conditions: omeprazole 0.5 μM
Sequence of CYP2C19 (P33261 whole entry): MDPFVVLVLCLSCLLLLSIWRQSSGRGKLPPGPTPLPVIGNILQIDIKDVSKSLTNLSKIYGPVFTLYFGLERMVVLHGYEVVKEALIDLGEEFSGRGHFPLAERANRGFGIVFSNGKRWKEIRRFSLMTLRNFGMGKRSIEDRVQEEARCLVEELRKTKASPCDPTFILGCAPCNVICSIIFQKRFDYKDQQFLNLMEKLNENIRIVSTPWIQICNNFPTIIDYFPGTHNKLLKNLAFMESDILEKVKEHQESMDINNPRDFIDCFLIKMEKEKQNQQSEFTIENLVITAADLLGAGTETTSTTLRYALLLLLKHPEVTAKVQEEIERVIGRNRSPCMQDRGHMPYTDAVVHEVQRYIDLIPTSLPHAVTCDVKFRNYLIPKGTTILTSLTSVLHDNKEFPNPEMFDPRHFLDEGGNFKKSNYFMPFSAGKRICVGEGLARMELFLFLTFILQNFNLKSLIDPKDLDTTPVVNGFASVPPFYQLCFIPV
Protocol: as §1, §2

CYP2D6 = CYP2D6 (Homo sapiens (Human), UniProt P10635); assay: CYP inhibition assay, human liver microsomes; assay type: biochemical; conditions: dextromethorphan 5 μM
Sequence of CYP2D6 (P10635 whole entry): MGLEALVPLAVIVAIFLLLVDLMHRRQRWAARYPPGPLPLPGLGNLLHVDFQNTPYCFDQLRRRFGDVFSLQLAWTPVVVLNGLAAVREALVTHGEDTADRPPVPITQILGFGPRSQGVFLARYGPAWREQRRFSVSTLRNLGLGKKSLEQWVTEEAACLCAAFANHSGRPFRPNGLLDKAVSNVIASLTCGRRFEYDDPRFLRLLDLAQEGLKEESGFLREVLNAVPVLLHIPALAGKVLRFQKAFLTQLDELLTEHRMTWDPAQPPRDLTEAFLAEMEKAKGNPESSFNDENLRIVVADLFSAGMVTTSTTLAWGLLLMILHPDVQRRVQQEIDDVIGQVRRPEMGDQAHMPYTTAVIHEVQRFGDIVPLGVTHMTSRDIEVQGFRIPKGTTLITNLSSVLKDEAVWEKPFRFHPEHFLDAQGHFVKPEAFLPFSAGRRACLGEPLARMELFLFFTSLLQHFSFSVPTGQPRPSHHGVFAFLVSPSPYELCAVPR
Protocol: as §1, §2

CYP2C8 = CYP2C8 (Homo sapiens (Human), UniProt P10632); assay: CYP inhibition assay, human liver microsomes; assay type: biochemical; conditions: paclitaxel 10 μM, reference montelukast
Sequence of CYP2C8 (P10632 whole entry): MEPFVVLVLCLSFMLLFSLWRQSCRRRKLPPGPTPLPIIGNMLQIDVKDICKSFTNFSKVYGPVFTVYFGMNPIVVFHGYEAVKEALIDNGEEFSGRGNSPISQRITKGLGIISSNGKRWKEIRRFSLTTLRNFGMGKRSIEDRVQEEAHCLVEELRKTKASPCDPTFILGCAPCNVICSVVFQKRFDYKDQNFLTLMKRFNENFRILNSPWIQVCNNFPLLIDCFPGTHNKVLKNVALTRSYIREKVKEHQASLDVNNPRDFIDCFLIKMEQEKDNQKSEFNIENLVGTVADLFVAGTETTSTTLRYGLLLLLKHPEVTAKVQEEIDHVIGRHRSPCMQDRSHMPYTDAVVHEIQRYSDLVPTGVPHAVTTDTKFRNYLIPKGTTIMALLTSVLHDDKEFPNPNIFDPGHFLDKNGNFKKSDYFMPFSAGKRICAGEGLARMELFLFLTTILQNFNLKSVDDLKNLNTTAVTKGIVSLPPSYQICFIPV
Protocol: as §1, §2

zebrafish embryos = assay: Zebrafish toxicity in the absence of doxorubicin (TD50); conditions: absence of doxorubicin treatment
Protocol: Dose-response curves were constructed using Prism (GraphPad). Raw data representing percent rescue at each dose was log-transformed, and EC50 values were calculated using nonlinear regression analysis. The median toxic dose (TD50) was defined for each compound by assessing for pericardial edema, non-specific deformities, and death in the absence of doxorubicin treatment (data not shown). Concentrations at and above the TD50 (toxic dose) were excluded from dose-response curves.

[5] = system: zebrafish embryos treated with DOX (cardiomyopathy phenotype); assay: Zebrafish doxorubicin cardiomyopathy model (rescue from phenotype); assay type: in vivo; conditions: visnagin 20 μM plus AHR agonist
slc2a1a = assay: Zebrafish proteomics; assay type: in vivo; conditions: zebrafish embryos, 40 hours post-treatment; visnagin 20 μM
sqstm1 = assay: Zebrafish proteomics; assay type: in vivo; conditions: zebrafish embryos, 40 hours post-treatment; visnagin 20 μM
LOC100332237 = assay: Zebrafish proteomics; assay type: in vivo; conditions: zebrafish embryos, 40 hours post-treatment; visnagin 20 μM
gstp2 = assay: Zebrafish proteomics; assay type: in vivo; conditions: zebrafish embryos, 40 hours post-treatment; visnagin 20 μM
rad9a = assay: Zebrafish proteomics; assay type: in vivo; conditions: zebrafish embryos, 40 hours post-treatment; visnagin 20 μM
CYP1A [6] = assay: Zebrafish proteomics; assay type: in vivo; conditions: zebrafish embryos, 40 hours post-treatment; visnagin 20 μM
Protocol: (§3) The proteomics analysis was carried out as described in the material and methods section. All protein abundance values are normalized to DMSO-treated control zebrafish. * p<0.05 compared to the DMSO control using the Benjamini-Hochberg method of correcting for multiple hypotheses.

cyp1c1 = assay: Zebrafish proteomics; assay type: in vivo; conditions: zebrafish embryos, 40 hours post-treatment; visnagin 20 μM
Protocol: as §3

cyp1b1 = assay: Zebrafish proteomics; assay type: in vivo; conditions: zebrafish embryos, 40 hours post-treatment; visnagin 20 μM
Protocol: as §3

thbs1b = assay: Zebrafish proteomics; assay type: in vivo; conditions: zebrafish embryos, 40 hours post-treatment; visnagin 20 μM
[7] = patients treated with DOX; cited from earlier work
dhrs13l1 = assay: Zebrafish proteomics; assay type: in vivo; conditions: zebrafish embryos, 40 hours post-treatment; visnagin 20 μM
[8] = system: C-reactive protein 3 (CRP3); assay: Zebrafish proteomics; assay type: in vivo
Protocol: (§4) Expression levels of 6085 proteins were measured in zebrafish treated with doxorubicin with or without visnagin. […] This is in contrast to other proteins that were modulated to a similar extent in fish treated with doxorubicin but were not reversed by co-treatment with visnagin. For instance, levels of myosin heavy chain B (MYHB) were decreased in fish treated with DOX alone and in fish treated with DOX+visnagin. Downregulation of MYHB has been previously described with DOX treatment (Ito H, PNAS 1990). Likewise, the inflammatory marker C-reactive protein 3 (CRP3) was increased in both DOX and DOX+visnagin-treated fish.

[9] = system: myosin heavy chain B (MYHB); assay: Zebrafish proteomics; assay type: in vivo
Protocol: as §4

CC(C)(C)OC(=O)NCCCOc1c2ccoc2cc2oc(=O)ccc12 [Example 2, tert-butyl (3-((7-oxo-7H-furo[3,2-g]chromen-4-yl)oxy)propyl)carbamate]
cardiac apoptosis / Annexin (Anx-750) uptake ([1]; DOX 15 mg/kg i.p., doses of 0.1 mg/kg, 1 mg/kg and 2 mg/kg i.p., 24 hours): significant reduction in apoptosis; also recorded: reduced significantly; also recorded: significant cardioprotective effect
Annexin-Vivo fluorescence in the mouse heart / cardioprotection ([1]; DOX 15 mg/kg, 0.1 mg/kg i.p.): significantly reduced; also recorded: cardioprotective
ex vivo Anx fluorescence in heart ([1]; DOX 15 mg/kg, dose of 2 mg/kg): marked reduction
potency relative to visnagin in reducing DOX-induced cardiomyocyte apoptosis in mice ([1]; compared to visnagin): 250 fold
EC50 [2]: 0.007 µM
effect on DOX-induced increase of CYP1 enzyme levels (CYP1 enzymes; co-treatment with doxorubicin): completely abolished
induction of CYP1A by DOX, Western blot (CYP1A [3]): mitigated induction of CYP1A
EC50 (HL-1 cardiomyocytes; Mus musculus, HL-1, viability after 18 hours, CellTiter-Glo, read-out: EC50 in HL-1 Cells): > 50 µM
efficacy in HL-1 cell culture model (HL-1 cardiomyocytes; doses up to 50 μM): ineffective
IC50 (CYP2B6): 88 µM
Mean % Inhibition CYP2B6 (CYP2B6; reference clopidogrel): 67.2%
Mean % Inhibition CYP2C9 (CYP2C9): 2.4%
IC50 (CYP1A [4]): 1.6e-06 M
IC50 (CYP3A; probe testosterone 50 μM): 9.3 µM
Mean % Inhibition CYP3A (CYP3A; testosterone 50 μM, reference ketoconazole): 62.7%
IC50 (CYP2C19): 12 µM
Mean % Inhibition CYP2C19 (CYP2C19; reference oxybutynin): 57.0%
IC50 (CYP2D6): 2 µM
Mean % Inhibition CYP2D6 (CYP2D6; reference quinidine): 84.4%
Mean % Inhibition CYP2C8 (CYP2C8): 7.1%
toxic dose TD50 in the zebrafish model (zebrafish embryos): > 10 µM

COC(=O)c1csc(C(=O)c2c[nH]c3ccccc23)n1 [methyl 2-(1H-indole-3-carbonyl)-1,3-thiazole-4-carboxylate]
effect on visnagin-mediated rescue from doxorubicin-induced cardiomyopathy [5]: abrogated

COc1cccc2c1C(=O)c1c(O)c3c(c(O)c1C2=O)C[C@@](O)(C(=O)CO)C[C@@H]3O[C@H]1C[C@H](N)[C@H](O)[C@H](C)O1 [DOX, doxorubicin]
cardiac annexin uptake, DOX only group ([1]; DOX 15 mg/kg + carrier vs saline control): increased significantly
Protein Abundance (Normalized to DMSO) slc2a1a (slc2a1a): 1.19
Protein Abundance (Normalized to DMSO) sqstm1 (sqstm1): 2.78*
levels of CYP1 enzymes after doxorubicin treatment (CYP1 enzymes): robust induction
levels of CYP1 enzymes after doxorubicin treatment (CYP1 enzymes; listed as doxorubicin): significant upregulation; also recorded: significantly increased
Protein Abundance (Normalized to DMSO) LOC100332237 (LOC100332237): 3.03*
Protein Abundance (Normalized to DMSO) gstp2 (gstp2): 2.32*
Protein Abundance (Normalized to DMSO) rad9a (rad9a): 2.92*
Protein Abundance (Normalized to DMSO) cyp1a (CYP1A [6]): 9.52*
Protein Abundance (Normalized to DMSO) cyp1c1 (cyp1c1): 7.91*
Protein Abundance (Normalized to DMSO) cyp1b1 (cyp1b1): 6.26*
Protein Abundance (Normalized to DMSO) thbs1b (thbs1b): 2.29*
patients with dose-dependent cardiotoxicity [7]: up to 9%
Protein Abundance (Normalized to DMSO) dhrs13l1 (dhrs13l1): 3.02*
levels of C-reactive protein 3 (CRP3) [8]: increased
levels of myosin heavy chain B (MYHB) [9]: decreased
